# Patent US9173912B2 (priority 2008, dated 2015)
# Key:
# [1] = test system: herpes simplex viruses type 1 (HSV-1); test: Virustatic activity: supernatant of infected human cells after inoculation with extract; type: cell-based
# Description: (§1) In addition, a quite universal usability of the invented extract on viral diseases could be shown with herpes simplex viruses type 1 (HSV-1):
# The definition of virustatic activity is then identified via the supernatant of infected human cells after inoculation with extract. Aciclovir is the accepted positive control.
# [2] = test system: herpes simplex viruses type 1 (HSV-1); test: Virucidal activity: viral suspension exposed to extract, then infectiousness in cells measured; type: cell-based; conditions: Herpes Simplex Virus I
# Procedure: as §1
# In order to define the virucidal activity, a viral suspension is exposed to the extract and then the infectiousness of viruses in the cells is measured. Ethanol is used for positive controls.
# [3] = molecular target: neuraminidase of Clostridium perfringens; conditions: read-out: IC 50 neuraminidase, Zanamivir column
# [4] = Inactivation of superoxide anions after stimulation with PMA (colour reduction); conditions: test concentration 200 μg/ml, versus untreated control (0% inactivation)
# Procedure: The concentration of oxygen radicals (superoxide anions) is regarded as measure for oxidative stress in organic tissues. By means of quantifying superoxide anions with a color reduction after stimulating with phorbol-12-myristat-13-acetate (PMA), the following antioxidative capacities have been recorded (test concentration 200 μg/ml) in comparison to an untreated control (0% inactivation): […]
compound,measurement,setting,value
Nc1nc2c(ncn2COCCO)c(=O)[nH]1 [Aciclovir],IC50,"[1]; Human alphaherpesvirus 1, Herpes Simplex Virus I, read-out: IC 50 Virustatic",0.0002 mg/mL
same,IC 50 Virucidal,[2],ineffective
CCO [Ethanol],IC 50 Virustatic,[1]; Herpes Simplex Virus I,ineffective
same,IC50,"[2]; Human alphaherpesvirus 1, read-out: IC 50 Virucidal",80 mg/mL
CC(=O)N[C@H]1[C@H]([C@H](O)[C@H](O)CO)OC(C(=O)O)=C[C@@H]1N=C(N)N [Zanamivir],IC50,[3],> 200 µM
O=C1O[C@H]([C@@H](O)CO)C(O)=C1O [Vitamin C],"Antioxidative capacity, inactivation of superoxide anions",[4],96.6%
